# Reference: PubChem BioAssay (NCI)
#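 Five concentrations, 48 hours, 96-well plates. GI50 marks 50% less growth. TGI denotes the concentration required for complete inhibition of growth.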
# Tests used:
# Experiment in all cases: NCI anticancer screen, dose series, 48 h
# [1] = system: HOP-92 NSCLC
# [2] = system: ACHN renal
# [3] = system: NCI-H226 lung
# [4] = system: M14 melanoma
# [5] = system: SW-620 colon
# [6] = system: EKVX NSCLC
# [7] = system: NCI-H522 lung
# [8] = system: SK-MEL-5 melanoma
# [9] = system: NCI/ADR-RES ovarian
# [10] = system: MOLT-4 leukemia
# [11] = system: T-47D breast
# [12] = system: NCI-H23 lung
# [13] = system: HOP-62 NSCLC
# [14] = system: HCC-2998 colon
# [15] = system: DU-145 prostate
# [16] = system: SF-295 CNS
# [17] = system: UACC-62 melanoma
# [18] = system: SK-OV-3 ovarian
# [19] = system: SNB-75 CNS
# [20] = system: SNB-19 CNS
# [21] = system: CAKI-1 renal
# [22] = system: MALME-3M melanoma
# [23] = system: TK-10 renal
# [24] = system: K-562 leukemia
# [25] = system: BT-549 breast
# [26] = system: SN12C renal
# [27] = system: KM12 colon
# [28] = system: MDA-MB-435
# [29] = system: RPMI-8226 leukemia
# [30] = system: OVCAR-8 ovarian
# [31] = system: MDA-MB-231 breast
# [32] = system: A549 NSCLC
# [33] = system: HCT-15 colon
# [34] = system: HT29 colon
# [35] = system: SK-MEL-28 melanoma
# [36] = system: CCRF-CEM leukemia
# [37] = system: SF-268 CNS
# [38] = system: HS 578T breast
# [39] = system: A498 renal
# [40] = system: SF-539 CNS
# [41] = system: OVCAR-5 ovarian
# [42] = system: HCT-116 colon
# [43] = system: U251 CNS
# [44] = system: LOX IMVI melanoma
# [45] = system: 786-0 renal
# [46] = system: COLO 205 colon
# [47] = system: UO-31 renal
# [48] = system: OVCAR-3 ovarian
# [49] = system: PC-3 prostate
# [50] = system: OVCAR-4 ovarian
# [51] = system: SR leukemia
# [52] = system: UACC-257 melanoma
# [53] = system: SK-MEL-2 melanoma
# [54] = system: IGROV1 ovarian
# [55] = system: NCI-H460 lung
# [56] = system: MCF7 breast
# [57] = system: HL-60(TB) leukemia
# [58] = system: RXF 393 renal
smiles,measurement,setting,value
COc1ccc(C2=CC(c3ccc(OC)c(OC)c3)c3c(c4ccccc4oc3=O)O2)cc1OC (stereo unspecified),GI50,[1],4.8 µM
same,TGI,[1],> 100 µM
same,GI50,[2],3.03 µM
same,TGI,[2],> 100 µM
same,GI50,[3],> 21.1 µM
same,TGI,[3],> 100 µM
same,GI50,[4],1.27 µM
same,TGI,[4],> 31.3 µM
same,GI50,[5],1.19 µM
same,TGI,[5],> 100 µM
same,GI50,[6],1.52 µM
same,TGI,[6],> 100 µM
same,GI50,[7],1.44 µM
same,GI50,[8],0.363 µM
same,TGI,[8],> 25.4 µM
same,GI50,[9],0.545 µM
same,GI50,[10],4.05 µM
same,TGI,[10],> 100 µM
same,GI50,[11],3.66 µM
same,TGI,[11],> 100 µM
same,GI50,[12],4.91 µM
same,TGI,[12],> 100 µM
same,GI50,[13],2.2 µM
same,TGI,[13],> 100 µM
same,GI50,[14],1.37 µM
same,TGI,[14],4.97 µM
same,GI50,[15],1.73 µM
same,TGI,[15],> 30.7 µM
same,GI50,[16],0.442 µM
same,TGI,[16],> 100 µM
same,GI50,[17],0.473 µM
same,TGI,[17],> 100 µM
same,GI50,[18],2.68 µM
same,TGI,[18],> 100 µM
same,GI50,[19],0.341 µM
same,TGI,[19],2.17 µM
same,GI50,[20],1.99 µM
same,TGI,[20],> 77.3 µM
same,GI50,[21],1.67 µM
same,TGI,[21],> 100 µM
same,GI50,[22],> 100 µM
same,TGI,[22],> 100 µM
same,GI50,[23],> 24.9 µM
same,TGI,[23],> 100 µM
same,GI50,[24],1.02 µM
same,TGI,[24],> 100 µM
same,GI50,[25],92.6 µM
same,TGI,[25],> 100 µM
same,GI50,[26],4.39 µM
same,TGI,[26],> 100 µM
same,GI50,[27],1.25 µM
same,TGI,[27],> 100 µM
same,GI50,[28],0.244 µM
same,TGI,[28],0.831 µM
same,GI50,[29],1.32 µM
same,TGI,[29],16.7 µM
same,GI50,[30],4.9 µM
same,TGI,[30],> 100 µM
same,GI50,[31],3.46 µM
same,TGI,[31],> 51.4 µM
same,GI50,[32],3.07 µM
same,TGI,[32],> 100 µM
same,GI50,[33],1.58 µM
same,TGI,[33],> 100 µM
same,GI50,[34],0.822 µM
same,TGI,[34],31 µM
same,TGI,[35],> 100 µM
same,GI50,[36],2.36 µM
same,TGI,[36],> 100 µM
same,GI50,[37],3.46 µM
same,TGI,[37],> 100 µM
same,GI50,[38],0.957 µM
same,TGI,[38],> 26.9 µM
same,GI50,[39],0.892 µM
same,TGI,[39],> 20.2 µM
same,GI50,[40],1.02 µM
same,TGI,[40],4.43 µM
same,GI50,[41],6.33 µM
same,TGI,[41],> 100 µM
same,GI50,[42],1.58 µM
same,TGI,[42],> 59.6 µM
same,GI50,[43],3.19 µM
same,TGI,[43],> 100 µM
same,GI50,[44],4.22 µM
same,TGI,[44],> 100 µM
same,GI50,[45],1.15 µM
same,TGI,[45],11.7 µM
same,GI50,[46],2.04 µM
same,TGI,[46],> 24.2 µM
same,GI50,[47],1.58 µM
same,TGI,[47],> 100 µM
same,GI50,[48],0.313 µM
same,GI50,[49],0.745 µM
same,TGI,[49],> 100 µM
same,GI50,[50],3.85 µM
same,TGI,[50],> 100 µM
same,GI50,[51],0.498 µM
same,TGI,[51],> 100 µM
same,GI50,[52],1.13 µM
same,TGI,[52],> 100 µM
same,GI50,[53],12.2 µM
same,TGI,[53],> 100 µM
same,GI50,[54],2.47 µM
same,TGI,[54],> 31.2 µM
same,GI50,[55],1.9 µM
same,TGI,[55],> 100 µM
same,GI50,[56],0.424 µM
same,TGI,[56],> 100 µM
same,GI50,[57],2.32 µM
Cc1nc(Nc2nc3ccccc3o2)nc(-c2cccc([N+](=O)[O-])c2)c1C(=O)Nc1ccc(F)c(Cl)c1,GI50,[1],1.39 µM
same,TGI,[1],4.66 µM
same,GI50,[2],2.42 µM
same,TGI,[2],81.7 µM
same,GI50,[3],3.05 µM
same,TGI,[3],> 100 µM
same,GI50,[4],3.26 µM
same,TGI,[4],> 100 µM
same,GI50,[5],3.09 µM
same,TGI,[5],> 100 µM
same,GI50,[7],1.39 µM
same,TGI,[7],5.71 µM
same,GI50,[8],1.71 µM
same,TGI,[8],3.45 µM
same,GI50,[9],2.33 µM
same,TGI,[9],10.5 µM
same,GI50,[10],3.24 µM
same,TGI,[10],16.9 µM
same,GI50,[11],1.41 µM
same,TGI,[11],9.18 µM
same,GI50,[12],2.19 µM
same,TGI,[12],18.8 µM
same,GI50,[13],2.58 µM
same,TGI,[13],50.4 µM
same,GI50,[14],3.26 µM
same,TGI,[14],> 100 µM
same,GI50,[15],2.95 µM
same,TGI,[15],> 100 µM
same,GI50,[16],1.65 µM
same,TGI,[16],7.09 µM
same,GI50,[17],2.29 µM
same,TGI,[17],> 100 µM
same,GI50,[18],2.8 µM
same,TGI,[18],> 100 µM
same,GI50,[19],2.27 µM
same,TGI,[19],9.62 µM
same,GI50,[20],2.32 µM
same,TGI,[20],> 100 µM
same,GI50,[22],1.92 µM
same,TGI,[22],5.79 µM
same,GI50,[58],2.83 µM
same,TGI,[58],> 100 µM
same,GI50,[23],2.07 µM
same,TGI,[23],12.2 µM
same,GI50,[24],1.84 µM
same,TGI,[24],> 100 µM
same,GI50,[25],3.08 µM
same,TGI,[25],68.4 µM
same,GI50,[26],2.64 µM
same,TGI,[26],20.1 µM
same,GI50,[27],1.96 µM
same,TGI,[27],12.4 µM
same,GI50,[28],2.16 µM
same,TGI,[28],8.01 µM
same,GI50,[29],0.724 µM
same,TGI,[29],4.26 µM
same,GI50,[30],2.44 µM
same,TGI,[30],> 100 µM
same,GI50,[31],1.88 µM
same,TGI,[31],4.82 µM
same,GI50,[32],1.92 µM
same,TGI,[32],> 100 µM
same,GI50,[33],2.29 µM
same,TGI,[33],> 100 µM
same,GI50,[34],2.21 µM
same,TGI,[34],19.5 µM
same,GI50,[35],3.83 µM
same,TGI,[35],> 100 µM
same,GI50,[36],2.34 µM
same,TGI,[36],24.2 µM
same,GI50,[37],3.3 µM
same,TGI,[37],> 100 µM
same,GI50,[38],2.87 µM
same,TGI,[38],38.8 µM
same,GI50,[39],0.853 µM
same,TGI,[39],3.5 µM
same,GI50,[40],3.52 µM
same,TGI,[40],> 100 µM
same,GI50,[41],3.8 µM
same,TGI,[41],> 100 µM
same,GI50,[42],1.98 µM
same,TGI,[42],> 100 µM
same,GI50,[43],2.06 µM
same,TGI,[43],8.27 µM
same,GI50,[44],2.78 µM
same,TGI,[44],> 100 µM
same,GI50,[45],3.18 µM
same,TGI,[45],> 100 µM
same,GI50,[46],1.78 µM
same,TGI,[46],3.4 µM
same,GI50,[47],1.87 µM
same,TGI,[47],7.09 µM
same,GI50,[48],1.02 µM
same,TGI,[48],13.8 µM
same,GI50,[49],0.797 µM
same,TGI,[49],11.5 µM
same,GI50,[50],1.62 µM
same,TGI,[50],35 µM
same,GI50,[51],2.6 µM
same,TGI,[51],15.1 µM
same,GI50,[52],2.31 µM
same,TGI,[52],8.23 µM
same,GI50,[53],2.03 µM
same,TGI,[53],4.73 µM
same,GI50,[54],2.94 µM
same,TGI,[54],> 100 µM
same,GI50,[55],1.43 µM
same,TGI,[55],17.7 µM
same,GI50,[56],2.04 µM
same,TGI,[56],9.73 µM
same,GI50,[57],2.15 µM
same,TGI,[57],5.29 µM
